In brackets after ≈: the same amount, converted by molar mass.

Assay [1] concerns methicillin resistant Staphylococcus aureus (MRSA). In words: Assay for in vitro antibacterial activity, agar dilution (MRSA). The following applies: read-out: Minimum Inhibitory Concentration (MIC50) MRSA. In general terms: In agar dilution the substance is mixed into plates at graded concentrations.
The test system of assay [2] is vancomycin resistant Enterococci (VRE). In words: Assay for in vitro antibacterial activity, agar dilution (VRE). The settings on record: Enterococcus, read-out: Minimum Inhibitory Concentration (MIC50) VRE.

Turning to `Cn1nnc(-c2ccc(-c3ccc(N4C[C@H](Cn5ccnn5)OC4=O)cc3F)cn2)n1` [Compound 9, (R)-3-(4-(2-(2-methyltetrazol-5-yl)pyridin-5-yl)-3-fluorophenyl)-5-([1,2,3]triazol-1-yl)methyl oxazolidin-2-one], the figures for the MIC50 in assay [1] and in assay [2] were 0.25 µg/mL (≈ 0.593 µM) and 0.125 µg/mL (≈ 0.297 µM), respectively.

On to `CC(=O)NC[C@H]1CN(c2ccc(-c3ccc(C4=NOC(COC(=O)CN)C4)nc3)c(F)c2)C(=O)O1` (stereo partly drawn) [Compound 7, (S)-3-(4-(2-(5-glycyloxymethyl-4,5-dihydroisoxazole-3-yl)pyridin-5-yl)-3-fluorophenyl)-2-oxo-5-oxazolidinylmethyl acetamide trifluoroacetic acid], for which the MIC50 in assay [1] and in assay [2] was 0.5 µg/mL (≈ 1.03 µM) throughout.

Take `Cn1nnc(-c2ccc(-c3ccc(N4C[C@H](COP(=O)(O)O)OC4=O)cc3F)cn2)n1` [Compound 72, mono-[(R)-[3-(4-(2-(2-methyltetrazol-5-yl)pyridin-5-yl)-3-fluorophenyl)-2-oxo-5-oxazolidinyl]methyl]phosphate]: the MIC50 in assay [1] and in assay [2] was 32 µg/mL (≈ 71.1 µM) in each case.

Turning to `O=C1O[C@@H](Cn2ccnn2)CN1c1ccc(-c2ccc(-n3cncn3)nc2)c(F)c1` [Compound 14, (R)-3-(4-(2-([1,2,4]triazol-1-yl)pyridin-5-yl)-3-fluorophenyl)-5-([1,2,3]triazol-1-yl)methyl oxazolidin-2-one], the MIC50 in assay [1] and in assay [2] was 0.25 µg/mL (≈ 0.615 µM) throughout.

For `C[C@H](N)C(=O)OC[C@H]1CN(c2ccc(-c3ccc(-c4nnnn4C)nc3)c(F)c2)C(=O)O1.Cl` [Compound 65, (R)-3-(4-(2-(1-methyltetrazol-5-yl)pyridin-5-yl)-3-fluorophenyl)-5-(L-alanyloxy)methyl oxazolidin-2-one hydrochloride], the MIC50 in assay [1] was 0.5 µg/mL; in assay [2] it was 0.25 µg/mL.

Take `Cn1nnc(-c2ccc(-c3ccc(N4C[C@H](CF)OC4=O)cc3F)cn2)n1` [Compound 18, (R)-3-(4-(2-(2-methyltetrazol-5-yl)pyridin-5-yl)-3-fluorophenyl)-5-fluoromethyl oxazolidin-2-one]: the MIC50 in assay [1] came to 1 µg/mL (≈ 2.69 µM); in assay [2], 2 µg/mL (≈ 5.37 µM).

As to `NCC(=O)OC[C@H]1CN(c2ccc(-c3ccc(-n4nccn4)nc3)c(F)c2)C(=O)O1` [Compound 35, (R)-3-(4-(2-([1,2,3]triazol-2-yl)pyridin-5-yl)-3-fluorophenyl)-5-glycyloxymethyl oxazolidin-2-one trifluoroacetic acid], the MIC50 in assay [1] and in assay [2] was 1 µg/mL (≈ 2.42 µM) each time.

`CC(=O)NC[C@H]1CN(c2ccc(-c3ccc(-c4nc(COC(=O)CN)cs4)cc3)c(F)c2)C(=O)O1` [Compound 30, (S)-3-(4-(4-(4-glycyloxymethylthiazol-2-yl)phenyl)-3-fluorophenyl)-2-oxo-5-oxazolidinylmethyl acetamide trifluoroacetic acid]: the MIC50 in assay [1] and in assay [2] was 0.5 µg/mL (≈ 1 µM) each time.

With `CC(=O)NC[C@H]1CN(c2ccc(-c3ccc(C4=NC(CO)CO4)cc3)c(F)c2)C(=O)O1` (stereo partly drawn) [Compound 26, (S)-3-(4-(4-(4(S)-hydroxymethyl-4,5-dihydroxazole-2-yl)phenyl)-3-fluorophenyl)-2-oxo-5-oxazolidinylmethyl acetamide], the MIC50 in assay [1] and in assay [2] was 0.5 µg/mL (≈ 1.17 µM) throughout.

On to `CC(=O)NC[C@H]1CN(c2ccc(-c3ccc(-c4nc(CC#N)cs4)cc3)c(F)c2)C(=O)O1` [Compound 31, (S)-3-(4-(4-(4-cyanomethylthiazol-2-yl)phenyl)-3-fluorophenyl)-2-oxo-5-oxazolidinylmethyl acetamide], for which the MIC50 in assay [1] and in assay [2] was 0.5 µg/mL (≈ 1.11 µM) each time.

As for `O=C1O[C@@H](CO)CN1c1ccc(-c2ccc(-n3nccn3)nc2)c(F)c1` [Compound 29, (R)-3-(4-(2-([1,2,3]triazol-2-yl)pyridin-5-yl)-3-fluorophenyl)-5-hydroxymethyl oxazolidin-2-one], the results for the MIC50 in assay [1] and in assay [2] were 0.5 µg/mL (≈ 1.41 µM) and 1 µg/mL (≈ 2.81 µM), respectively.

Take `CC(=O)NC[C@H]1CN(c2ccc(-c3ccc(-n4cc(COC(=O)CN)nn4)nc3)c(F)c2)C(=O)O1` [Compound 2, (S)-3-(4-(2-(4-glycyloxymethyl-1,2,3-triazol-1-yl)pyridin-5-yl)-3-fluorophenyl)-2-oxo-5-oxazolidinylmethyl acetamide trifluoroacetic acid]: the MIC50 in assay [1] amounted to 0.5 µg/mL (≈ 1.03 µM); in assay [2] it was 0.125 µg/mL (≈ 0.259 µM).

On to `CC(=O)NC[C@H]1CN(c2ccc(-c3ccc(-c4nc(CO)cs4)cc3)c(F)c2)C(=O)O1` [Compound 28, (S)-3-(4-(4-(4-hydroxymethylthiazol-2-yl)phenyl)-3-fluorophenyl)-2-oxo-5-oxazolidinylmethyl acetamide], for which the MIC50 in assay [1] and in assay [2] was 0.5 µg/mL (≈ 1.13 µM) throughout.

As for `Cl.Cn1nnnc1-c1ccc(-c2ccc(N3C[C@H](COC(=O)CN)OC3=O)cc2F)cn1` [Compound 63, (R)-3-(4-(2-(1-methyltetrazol-5-yl)pyridin-5-yl)-3-fluorophenyl)-5-glycyloxymethyl oxazolidin-2-one hydrochloride], the figures for the MIC50 in assay [1] and in assay [2] were 0.5 µg/mL and 0.25 µg/mL, respectively.

Regarding `CC(=O)NC[C@H]1CN(c2ccc(-c3ccc(-c4nc(C)c(C)o4)cc3)c(F)c2)C(=O)O1` [Compound 11, (S)-3-(4-(4-(4,5-dimethyloxazol-2-yl)phenyl)-3-fluorophenyl)-2-oxo-5-oxazolidinylmethyl acetamide], the results for the MIC50 in assay [1] and in assay [2] were 0.5 µg/mL (≈ 1.18 µM) and 0.25 µg/mL (≈ 0.59 µM), respectively.

In the case of `Cn1nnc(-c2ccc(-c3c(F)cc(N4C[C@H](CO)OC4=O)cc3F)cn2)n1` [Compound 38, (R)-3-(4-(2-(2-methyltetrazol-5-yl)pyridin-5-yl)-3,5-difluorophenyl)-5-hydroxymethyl oxazolidin-2-one], the MIC50 stood at 0.5 µg/mL (≈ 1.29 µM) in assay [1] and 1 µg/mL (≈ 2.58 µM) in assay [2].

`Cl.NC[C@H]1CN(c2ccc(-c3ccc(-n4ccnc4)nc3)c(F)c2)C(=O)O1` [Compound 19, (S)-3-(4-(2-(imidazole-1-yl)pyridin-5-yl)-3-fluorophenyl)-5-aminomethyl oxazolidin-2-one hydrochloride]: the MIC50 in assay [1] and in assay [2] was 32 µg/mL throughout.

Regarding `Cn1nnc(-c2ccc(-c3ccc(N4C[C@H](Cn5cncn5)OC4=O)cc3F)cn2)n1` [Compound 4, (R)-3-(4-(2-(2-methyltetrazol-5-yl)pyridin-5-yl)-3-fluorophenyl)-5-([1,2,4]triazol-1-yl)methyl oxazolidin-2-one], the MIC50 in assay [1] and in assay [2] was 2 µg/mL (≈ 4.75 µM) throughout.

As for `CN(C)CC1CN(c2ccc(-c3ccc(-c4nnn(C)n4)nc3)c(F)c2)C(=O)O1` (stereo in doubt) [Compound 40, (R)-3-(4-(2-(2-methyltetrazol-5-yl)pyridin-5-yl)-3-fluorophenyl)-5-(N,N-dimethylaminomethyl)oxazolidin-2-one], the MIC50 came to 4 µg/mL (≈ 10.1 µM) in assay [1] and 8 µg/mL (≈ 20.1 µM) in assay [2].

Regarding `CC(=O)NC[C@H]1CN(c2ccc(-c3ccc(-c4nc(C)c(C)o4)nc3)c(F)c2)C(=O)O1` [Compound 15], the MIC50 in assay [1] and in assay [2] was 1 µg/mL (≈ 2.36 µM) each time.

As to `Cc1nc(-c2ccc(-c3ccc(N4C[C@H](COC(=O)CN)OC4=O)cc3F)cc2)oc1C` [Compound 23, (R)-3-(4-(4-(4,5-dimethyloxazol-2-yl)phenyl)-3-fluorophenyl)-5-glycyloxymethyl oxazolidin-2-one trifluoroacetic acid], the MIC50 in assay [1] and in assay [2] was 2 µg/mL (≈ 4.55 µM) each time.

Turning to `COC[C@H]1CN(c2ccc(-c3ccc(-c4nnn(C)n4)nc3)c(F)c2)C(=O)O1` [Compound 33, (R)-3-(4-(2-(2-methyltetrazol-5-yl)pyridin-5-yl)-3-fluorophenyl)-5-methoxymethyl oxazolidin-2-one], the MIC50 in assay [1] and in assay [2] was 2 µg/mL (≈ 5.2 µM) each time.

Regarding `CC(=O)NC[C@H]1CN(c2ccc(-c3ccc(-n4nccn4)nc3)c(F)c2)C(=O)O1` [Compound 25, (S)-3-(4-(2-([1,2,3]triazol-2-yl)pyridin-5-yl)-3-fluorophenyl)-2-oxo-5-oxazolidinylmethyl acetamide], the MIC50 in assay [1] came to 0.25 µg/mL (≈ 0.631 µM); in assay [2], 0.125 µg/mL (≈ 0.315 µM).

For the compound `O=C1O[C@@H](Cn2ccnn2)CN1c1ccc(-c2ccc(-c3nc(CO)cs3)cc2)c(F)c1` [Compound 36, (R)-3-(4-(4-(4-hydroxymethylthiazol-2-yl)phenyl)-3-fluorophenyl)-5-([1,2,3]triazol-1-yl)methyl oxazolidin-2-one], the MIC50 in assay [1] and in assay [2] was 0.5 µg/mL (≈ 1.11 µM) in each case.

`Cc1nnc(-c2ccc(-c3c(F)cc(N4C[C@H](CO)OC4=O)cc3F)cn2)o1` [Compound 39, (R)-3-(4-(2-(2-methyl-[1,3,4]oxadiazol-5-yl)pyridin-5-yl)-3,5-difluorophenyl)-5-hydroxymethyl oxazolidin-2-one]: the MIC50 in assay [1] and in assay [2] was 1 µg/mL (≈ 2.58 µM) throughout.

`Cc1nnc(-c2ccc(-c3ccc(N4C[C@H](Cn5ccnn5)OC4=O)cc3F)cn2)o1` [Compound 13, (R)-3-(4-(2-(2-methyl-[1,3,4]oxadiazol-5-yl)pyridin-5-yl)-3-fluorophenyl)-5-([1,2,3]triazol-1-yl)methyl oxazolidin-2-one]: the MIC50 in assay [1] and in assay [2] was 0.25 µg/mL (≈ 0.593 µM) throughout.

With `NCC(=O)OCc1csc(-c2ccc(-c3ccc(N4C[C@H](Cn5ccnn5)OC4=O)cc3F)cc2)n1` [Compound 37, (R)-3-(4-(4-(4-glycyloxymethylthiazol-2-yl)phenyl)-3-fluorophenyl)-5-([1,2,3]triazol-1-yl)methyl oxazolidin-2-one trifluoroacetic acid], the MIC50 in assay [1] and in assay [2] was 0.5 µg/mL (≈ 0.983 µM) each time.

Consider `Cn1nnc(-c2ccc(-c3ccc(N4C[C@H](Cn5nccn5)OC4=O)cc3F)cn2)n1` [Compound 8, (R)-3-(4-(2-(2-methyltetrazol-5-yl)pyridin-5-yl)-3-fluorophenyl)-5-([1,2,3]triazol-2-yl)methyl oxazolidin-2-one], for which the MIC50 in assay [1] and in assay [2] was 16 µg/mL (≈ 38 µM) in each case.
